According to the kinase profiling compilation of Christmann-Franck et al. (2016):

What was measured:
Experiment in all cases: KINOMEscan competition binding
Settings in all cases: compound 10.0 µM
ACVR2A (human) = ACVR2A (human) (UniProt P27037)
ADCK3 (human) = ADCK3 (human) (UniProt Q8NI60)
AKT2 (human) = AKT2 (human) (UniProt P31751)
BMPR1B (human) = BMPR1B (human) (UniProt O00238)
CDK3 (human) = CDK3 (human) (UniProt Q00526)
CSF1R (human) = CSF1R (human) (UniProt P07333)
CSK (human) = CSK (human) (UniProt P41240)
DAPK2 (human) = DAPK2 (human) (UniProt Q9UIK4)
ICK (human) = ICK (human) (UniProt Q9UPZ9)
IGF1R (human) = IGF1R (human) (UniProt P08069)
INSRR (human) = INSRR (human) (UniProt P14616)
[1] = target: JAK2 JH1 catalytic (human) (UniProt O60674)
[2] = target: JAK3 JH1 catalytic (human) (UniProt P52333)
LIMK1 (human) = LIMK1 (human) (UniProt P53667)
MAP2K6 (human) = MAP2K6 (human) (UniProt P52564)
MAPK14 (human) = MAPK14 (human) (UniProt Q16539)
MAPK6 (human) = MAPK6 (human) (UniProt Q16659)
MAPKAPK5 (human) = MAPKAPK5 (human) (UniProt Q8IW41)
MTOR (human) = MTOR (human) (UniProt P42345)
MYO3A (human) = MYO3A (human) (UniProt Q8NEV4)
NEK11 (human) = NEK11 (human) (UniProt Q8NG66)
NEK9 (human) = NEK9 (human) (UniProt Q8TD19)
PDPK1 (human) = PDPK1 (human) (UniProt O15530)
PIK3C2G (human) = PIK3C2G (human) (UniProt O75747)
PLK3 (human) = PLK3 (human) (UniProt Q9H4B4)
PRKAA2 (human) = PRKAA2 (human) (UniProt P54646)
PRKACA (human) = PRKACA (human) (UniProt P17612)
PRKCE (human) = PRKCE (human) (UniProt Q02156)
PRKCQ (human) = PRKCQ (human) (UniProt Q04759)
PRKD2 (human) = PRKD2 (human) (UniProt Q9BZL6)
PRKD3 (human) = PRKD3 (human) (UniProt O94806)
RIOK2 (human) = RIOK2 (human) (UniProt Q9BVS4)
SGK3 (human) = SGK3 (human) (UniProt Q96BR1)
SIK1 (human) = SIK1 (human) (UniProt P57059)
SRPK3 (human) = SRPK3 (human) (UniProt Q9UPE1)
STK32A (human) = STK32A (human) (UniProt Q8WU08)
STK39 (human) = STK39 (human) (UniProt Q9UEW8)
TESK1 (human) = TESK1 (human) (UniProt Q15569)
TGFBR2 (human) = TGFBR2 (human) (UniProt P37173)
TIE1 (human) = TIE1 (human) (UniProt P35590)

Chain of IGF1R (human) (P08069 whole entry, looked up): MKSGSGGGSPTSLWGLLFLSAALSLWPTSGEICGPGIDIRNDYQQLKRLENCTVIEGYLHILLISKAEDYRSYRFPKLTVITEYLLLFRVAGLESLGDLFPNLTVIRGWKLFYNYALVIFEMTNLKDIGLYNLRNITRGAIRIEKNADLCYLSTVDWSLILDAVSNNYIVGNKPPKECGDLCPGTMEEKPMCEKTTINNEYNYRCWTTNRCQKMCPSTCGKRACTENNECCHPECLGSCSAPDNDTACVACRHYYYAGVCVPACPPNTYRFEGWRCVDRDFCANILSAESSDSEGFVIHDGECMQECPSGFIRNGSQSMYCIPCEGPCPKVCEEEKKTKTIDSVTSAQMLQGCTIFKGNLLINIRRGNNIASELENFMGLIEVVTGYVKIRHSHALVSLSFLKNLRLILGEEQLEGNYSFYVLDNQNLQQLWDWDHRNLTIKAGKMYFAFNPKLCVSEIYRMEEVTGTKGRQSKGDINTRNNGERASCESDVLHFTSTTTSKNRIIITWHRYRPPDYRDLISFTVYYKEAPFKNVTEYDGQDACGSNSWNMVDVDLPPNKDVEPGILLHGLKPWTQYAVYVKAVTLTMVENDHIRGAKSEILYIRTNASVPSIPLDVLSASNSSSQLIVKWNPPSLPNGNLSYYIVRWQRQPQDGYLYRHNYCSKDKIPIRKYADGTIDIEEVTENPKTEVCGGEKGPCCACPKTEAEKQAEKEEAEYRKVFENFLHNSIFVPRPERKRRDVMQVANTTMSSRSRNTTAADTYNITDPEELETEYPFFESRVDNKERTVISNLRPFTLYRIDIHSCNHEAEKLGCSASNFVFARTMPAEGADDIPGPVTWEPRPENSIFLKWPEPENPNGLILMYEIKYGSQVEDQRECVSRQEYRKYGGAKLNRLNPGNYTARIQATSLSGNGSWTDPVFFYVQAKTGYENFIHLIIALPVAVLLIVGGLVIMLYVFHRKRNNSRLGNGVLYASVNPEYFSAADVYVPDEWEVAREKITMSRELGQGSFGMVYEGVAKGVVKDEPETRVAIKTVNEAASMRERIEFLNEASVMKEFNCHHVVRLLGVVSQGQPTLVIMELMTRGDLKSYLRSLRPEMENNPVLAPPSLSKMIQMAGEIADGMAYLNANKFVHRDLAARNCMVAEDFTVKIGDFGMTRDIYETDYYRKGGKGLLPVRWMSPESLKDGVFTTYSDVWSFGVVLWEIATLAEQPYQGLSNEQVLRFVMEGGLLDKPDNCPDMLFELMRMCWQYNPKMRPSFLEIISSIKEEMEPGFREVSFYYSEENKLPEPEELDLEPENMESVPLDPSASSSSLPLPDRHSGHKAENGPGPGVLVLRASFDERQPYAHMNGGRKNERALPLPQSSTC
Chain of PLK3 (human) (Q9H4B4 whole entry, looked up): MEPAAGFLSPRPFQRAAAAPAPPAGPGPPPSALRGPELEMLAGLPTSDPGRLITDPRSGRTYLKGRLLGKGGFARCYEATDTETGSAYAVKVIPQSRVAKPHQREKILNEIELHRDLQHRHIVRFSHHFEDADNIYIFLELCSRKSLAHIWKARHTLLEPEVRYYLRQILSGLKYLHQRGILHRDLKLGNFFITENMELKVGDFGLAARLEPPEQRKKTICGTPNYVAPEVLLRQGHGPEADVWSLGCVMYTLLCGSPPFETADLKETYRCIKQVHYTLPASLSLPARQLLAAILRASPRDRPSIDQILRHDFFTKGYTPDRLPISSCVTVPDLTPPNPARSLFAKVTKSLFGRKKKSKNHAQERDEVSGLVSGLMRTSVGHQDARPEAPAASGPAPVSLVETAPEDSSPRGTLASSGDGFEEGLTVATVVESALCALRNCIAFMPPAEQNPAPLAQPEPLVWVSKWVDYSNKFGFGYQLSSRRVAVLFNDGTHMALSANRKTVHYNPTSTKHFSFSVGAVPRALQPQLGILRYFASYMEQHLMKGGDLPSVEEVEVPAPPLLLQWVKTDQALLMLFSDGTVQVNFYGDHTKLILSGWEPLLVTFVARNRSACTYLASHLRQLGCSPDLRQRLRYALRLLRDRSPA
Chain of JAK3 JH1 catalytic (human) (P52333 whole entry, looked up): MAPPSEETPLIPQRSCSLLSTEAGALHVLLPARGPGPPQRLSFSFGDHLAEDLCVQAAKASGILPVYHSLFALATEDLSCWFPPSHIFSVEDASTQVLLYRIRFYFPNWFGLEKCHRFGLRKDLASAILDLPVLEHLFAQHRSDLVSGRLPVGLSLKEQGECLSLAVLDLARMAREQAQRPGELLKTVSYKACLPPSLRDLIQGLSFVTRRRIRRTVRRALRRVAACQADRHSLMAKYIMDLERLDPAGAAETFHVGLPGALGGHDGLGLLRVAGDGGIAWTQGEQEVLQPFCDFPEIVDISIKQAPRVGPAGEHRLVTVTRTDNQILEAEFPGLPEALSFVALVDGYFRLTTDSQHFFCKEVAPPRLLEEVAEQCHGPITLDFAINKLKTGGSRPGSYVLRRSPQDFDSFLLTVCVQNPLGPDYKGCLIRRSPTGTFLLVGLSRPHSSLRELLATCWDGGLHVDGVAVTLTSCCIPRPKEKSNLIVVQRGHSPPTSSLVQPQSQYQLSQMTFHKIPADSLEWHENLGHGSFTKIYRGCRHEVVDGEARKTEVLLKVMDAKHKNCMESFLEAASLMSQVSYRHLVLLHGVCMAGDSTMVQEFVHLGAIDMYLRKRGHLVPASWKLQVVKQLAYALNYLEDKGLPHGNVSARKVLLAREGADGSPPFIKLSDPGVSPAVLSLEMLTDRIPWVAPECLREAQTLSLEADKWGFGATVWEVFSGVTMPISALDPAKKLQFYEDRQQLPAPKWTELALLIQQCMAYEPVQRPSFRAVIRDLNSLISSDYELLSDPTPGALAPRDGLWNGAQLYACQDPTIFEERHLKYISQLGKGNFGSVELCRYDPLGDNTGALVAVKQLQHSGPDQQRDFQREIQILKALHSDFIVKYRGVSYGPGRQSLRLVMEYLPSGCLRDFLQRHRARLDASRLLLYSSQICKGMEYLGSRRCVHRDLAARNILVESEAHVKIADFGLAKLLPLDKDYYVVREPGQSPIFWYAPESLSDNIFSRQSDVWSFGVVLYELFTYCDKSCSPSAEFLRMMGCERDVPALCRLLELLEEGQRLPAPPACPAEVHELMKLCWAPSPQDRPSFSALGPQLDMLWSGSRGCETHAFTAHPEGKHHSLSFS
Chain of MAPKAPK5 (human) (Q8IW41 whole entry, looked up): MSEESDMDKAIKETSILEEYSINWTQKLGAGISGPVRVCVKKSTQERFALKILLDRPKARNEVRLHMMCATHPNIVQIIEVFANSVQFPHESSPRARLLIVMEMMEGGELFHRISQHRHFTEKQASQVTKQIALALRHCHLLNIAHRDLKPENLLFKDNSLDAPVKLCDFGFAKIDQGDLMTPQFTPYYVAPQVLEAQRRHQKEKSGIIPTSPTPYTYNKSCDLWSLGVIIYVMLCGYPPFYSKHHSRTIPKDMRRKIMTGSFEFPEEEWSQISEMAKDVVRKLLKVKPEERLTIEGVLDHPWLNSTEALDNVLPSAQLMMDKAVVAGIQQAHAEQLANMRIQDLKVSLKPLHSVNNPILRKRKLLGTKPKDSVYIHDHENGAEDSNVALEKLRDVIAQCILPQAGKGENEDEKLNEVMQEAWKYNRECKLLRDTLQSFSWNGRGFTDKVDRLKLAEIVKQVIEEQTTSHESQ
Chain of PRKD2 (human) (Q9BZL6 whole entry, looked up): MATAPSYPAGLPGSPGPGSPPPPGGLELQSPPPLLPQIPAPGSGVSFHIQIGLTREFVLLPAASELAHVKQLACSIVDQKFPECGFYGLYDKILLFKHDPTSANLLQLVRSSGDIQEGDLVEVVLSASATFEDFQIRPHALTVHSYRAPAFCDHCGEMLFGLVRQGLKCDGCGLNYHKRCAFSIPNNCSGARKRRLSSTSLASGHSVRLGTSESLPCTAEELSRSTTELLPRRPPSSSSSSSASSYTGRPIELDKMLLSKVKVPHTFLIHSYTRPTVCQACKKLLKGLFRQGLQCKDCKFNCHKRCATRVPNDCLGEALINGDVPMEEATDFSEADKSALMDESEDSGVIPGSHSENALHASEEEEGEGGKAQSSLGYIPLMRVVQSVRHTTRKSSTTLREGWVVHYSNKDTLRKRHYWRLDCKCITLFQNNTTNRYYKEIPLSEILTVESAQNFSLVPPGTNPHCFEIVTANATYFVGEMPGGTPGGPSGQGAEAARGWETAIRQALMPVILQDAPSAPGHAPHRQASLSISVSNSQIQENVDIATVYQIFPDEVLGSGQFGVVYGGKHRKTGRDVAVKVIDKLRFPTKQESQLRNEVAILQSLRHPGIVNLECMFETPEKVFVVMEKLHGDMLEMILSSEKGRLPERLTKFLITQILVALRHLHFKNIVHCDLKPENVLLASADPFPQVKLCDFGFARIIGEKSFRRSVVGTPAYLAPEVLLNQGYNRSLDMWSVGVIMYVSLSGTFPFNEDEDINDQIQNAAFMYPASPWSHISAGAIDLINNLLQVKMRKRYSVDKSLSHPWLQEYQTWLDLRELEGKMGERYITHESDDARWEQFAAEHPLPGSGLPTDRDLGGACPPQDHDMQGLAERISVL
Chain of BMPR1B (human) (O00238 whole entry, looked up): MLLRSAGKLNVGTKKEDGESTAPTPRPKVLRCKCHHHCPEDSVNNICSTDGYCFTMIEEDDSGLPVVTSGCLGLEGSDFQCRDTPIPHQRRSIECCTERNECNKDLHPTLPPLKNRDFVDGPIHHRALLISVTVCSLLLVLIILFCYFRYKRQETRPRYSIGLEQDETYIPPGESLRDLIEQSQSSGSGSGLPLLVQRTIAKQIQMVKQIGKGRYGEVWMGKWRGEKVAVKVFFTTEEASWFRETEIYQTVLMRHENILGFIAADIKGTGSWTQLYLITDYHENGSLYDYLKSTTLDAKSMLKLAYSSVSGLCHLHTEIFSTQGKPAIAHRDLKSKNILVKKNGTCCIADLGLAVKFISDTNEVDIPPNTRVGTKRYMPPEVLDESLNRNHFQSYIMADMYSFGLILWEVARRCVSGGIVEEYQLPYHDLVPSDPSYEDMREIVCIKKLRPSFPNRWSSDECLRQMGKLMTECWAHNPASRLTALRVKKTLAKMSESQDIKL

Structure (SMILES)	kinase still bound, per cent of control (ACVR2A (human)) [%]	kinase still bound, per cent of control (ADCK3 (human)) [%]	kinase still bound, per cent of control (AKT2 (human)) [%]	kinase still bound, per cent of control (BMPR1B (human)) [%]	kinase still bound, per cent of control (CDK3 (human)) [%]	kinase still bound, per cent of control (CSF1R (human)) [%]	kinase still bound, per cent of control (CSK (human)) [%]	kinase still bound, per cent of control (DAPK2 (human)) [%]	kinase still bound, per cent of control (ICK (human)) [%]	kinase still bound, per cent of control (IGF1R (human)) [%]	kinase still bound, per cent of control (INSRR (human)) [%]	kinase still bound, per cent of control [1] [%]	kinase still bound, per cent of control [2] [%]	kinase still bound, per cent of control (LIMK1 (human)) [%]	kinase still bound, per cent of control (MAP2K6 (human)) [%]	kinase still bound, per cent of control (MAPK14 (human)) [%]	kinase still bound, per cent of control (MAPK6 (human)) [%]	kinase still bound, per cent of control (MAPKAPK5 (human)) [%]	kinase still bound, per cent of control (MTOR (human)) [%]	kinase still bound, per cent of control (MYO3A (human)) [%]	other results
O=C(Nc1cccc(Nc2ncc(Br)c(NCCc3cnc[nH]3)n2)c1)N1CCCC1	6.4	100	100	0	62	1.4	24	22	10	17	4.8	0	0	38	22	100	5	28	87	28	kinase still bound, per cent of control (NEK11 (human)): 85%; kinase still bound, per cent of control (NEK9 (human)): 4.6%; kinase still bound, per cent of control (PDPK1 (human)): 2.4%; kinase still bound, per cent of control (PIK3C2G (human)): 25%; kinase still bound, per cent of control (PLK3 (human)): 20%; kinase still bound, per cent of control (PRKAA2 (human)): 0.5%; kinase still bound, per cent of control (PRKACA (human)): 0.95%; kinase still bound, per cent of control (PRKCE (human)): 0%; kinase still bound, per cent of control (PRKCQ (human)): 3.6%; kinase still bound, per cent of control (PRKD2 (human)): 1.7%; kinase still bound, per cent of control (PRKD3 (human)): 0.5%; kinase still bound, per cent of control (RIOK2 (human)): 36%; kinase still bound, per cent of control (SGK3 (human)): 91%; kinase still bound, per cent of control (SIK1 (human)): 0.35%; kinase still bound, per cent of control (SRPK3 (human)): 6.2%; kinase still bound, per cent of control (STK32A (human)): 51%; kinase still bound, per cent of control (STK39 (human)): 63%; kinase still bound, per cent of control (TESK1 (human)): 99%; kinase still bound, per cent of control (TGFBR2 (human)): 100%; kinase still bound, per cent of control (TIE1 (human)): 2.2%
COc1ccc(N(C(=O)Oc2c(C)cccc2C)c2ccnc(Nc3ccc(N4CCN(C)CC4)cc3)n2)c(OC)c1	0.75	26	100	80	100	0.1	2.5	100	100	100	100	35	0.25	0	66	52	100	100	100	69	kinase still bound, per cent of control (NEK11 (human)): 100%; kinase still bound, per cent of control (NEK9 (human)): 100%; kinase still bound, per cent of control (PDPK1 (human)): 82%; kinase still bound, per cent of control (PIK3C2G (human)): 98%; kinase still bound, per cent of control (PLK3 (human)): 100%; kinase still bound, per cent of control (PRKAA2 (human)): 7.9%; kinase still bound, per cent of control (PRKACA (human)): 1.6%; kinase still bound, per cent of control (PRKCE (human)): 27%; kinase still bound, per cent of control (PRKCQ (human)): 21%; kinase still bound, per cent of control (PRKD2 (human)): 6.4%; kinase still bound, per cent of control (PRKD3 (human)): 11%; kinase still bound, per cent of control (RIOK2 (human)): 83%; kinase still bound, per cent of control (SGK3 (human)): 100%; kinase still bound, per cent of control (SIK1 (human)): 0.3%; kinase still bound, per cent of control (SRPK3 (human)): 11%; kinase still bound, per cent of control (STK32A (human)): 8.2%; kinase still bound, per cent of control (STK39 (human)): 100%; kinase still bound, per cent of control (TESK1 (human)): 0%; kinase still bound, per cent of control (TGFBR2 (human)): 16%; kinase still bound, per cent of control (TIE1 (human)): 5.8%
COCC(=O)NC/C=C/c1ccc2ncnc(Nc3ccc(Oc4ccc(C)nc4)c(C)c3)c2c1	100	100	100	74	100	100	59	89	100	83	100	100	100	93	93	100	100	100	79	75	kinase still bound, per cent of control (NEK11 (human)): 100%; kinase still bound, per cent of control (NEK9 (human)): 82%; kinase still bound, per cent of control (PDPK1 (human)): 100%; kinase still bound, per cent of control (PIK3C2G (human)): 24%; kinase still bound, per cent of control (PLK3 (human)): 99%; kinase still bound, per cent of control (PRKAA2 (human)): 100%; kinase still bound, per cent of control (PRKACA (human)): 100%; kinase still bound, per cent of control (PRKCE (human)): 100%; kinase still bound, per cent of control (PRKCQ (human)): 100%; kinase still bound, per cent of control (PRKD2 (human)): 97%; kinase still bound, per cent of control (PRKD3 (human)): 83%; kinase still bound, per cent of control (RIOK2 (human)): 100%; kinase still bound, per cent of control (SGK3 (human)): 100%; kinase still bound, per cent of control (SIK1 (human)): 100%; kinase still bound, per cent of control (SRPK3 (human)): 100%; kinase still bound, per cent of control (STK32A (human)): 100%; kinase still bound, per cent of control (STK39 (human)): 100%; kinase still bound, per cent of control (TESK1 (human)): 75%; kinase still bound, per cent of control (TGFBR2 (human)): 94%; kinase still bound, per cent of control (TIE1 (human)): 100%
